Read-outs that look alike come from different tables or passages of the source.
What was measured:
[1] = Food effect (high-fat breakfast) on RBN-3143 pharmacokinetics, cross-over; format: in vivo, human; settings: single 500 mg oral dose; for Tmax / AUC(0-inf) / AUC(0-t) / Cmax: human, plasma, po, 500 mg; for Tmax: read-out: Median Tmax
Method: (§1) Analytes were separated by HPLC on a Waters Atlantis T3 analytical column using a gradient mobile phase (mobile phase A: 10% acetonitrile, 90% water, 10 mM ammonium acetate, 0.3% formic acid; mobile phase B: 90% acetonitrile, 10% water, 10 mM ammonium acetate, 0.3% formic acid) run at 0.4 mL/min with initial mobile phase B concentration of 30%.

[2] = Multiple ascending dose (MAD) pharmacokinetics in healthy volunteers, BID for 14 days; format: in vivo, human; settings: for AUC / Cmax / Tmax / half-life: human, plasma, oral; for Tmax: read-out: Tmax, median [min-max]
Method: as §1

With `CC(=O)N1CCC(COc2cc(F)c3c(=O)[nH]c(CSC4CCOCC4)nc3c2)CC1` [RBN‐3143] the Tmax ([1]; after a high-fat meal) was 4 h, the Tmax ([1]; fasted state) was 2 h and the AUC(0-inf) ([1]; fasted, N=13, linear mixed-effects model, read-out: AUCinf, GLSM) was 13300 ng·h/mL. It also gave an AUC(0-t) ([1]; fasted, N=13, linear mixed-effects model, read-out: AUClast, GLSM) of 12900 ng·h/mL, a Cmax ([1]; fasted, N=13, linear mixed-effects model, read-out: Cmax, GLSM) of 1550 ng/mL and an AUC(0-inf) ([1]; fasted, N=13, read-out: AUCinf, geometric mean (Geo CV%)) of 13300 ng·h/mL. For the same compound, the AUC(0-inf) ([1]; fasted, N=13, read-out: AUCinf, mean (SD)) was 13800 ng·h/mL, the AUC(0-t) ([1]; fasted, N=13, read-out: AUClast, geometric mean (Geo CV%)) was 12800 ng·h/mL and the AUC(0-t) ([1]; fasted, N=13, read-out: AUClast, mean (SD)) was 13300 ng·h/mL. It also gave a Cmax ([1]; fasted, N=13, read-out: Cmax, geometric mean (Geo CV%)) of 1530 ng/mL, a Cmax ([1]; fasted, N=13, read-out: Cmax, mean (SD)) of 1600 ng/mL and an AUC(0-inf) ([1]; fed (high-fat breakfast), N=13, linear mixed-effects model, read-out: AUCinf, GLSM) of 18900 ng·h/mL. It also gave an AUC(0-t) ([1]; fed (high-fat breakfast), N=13, linear mixed-effects model, read-out: AUClast, GLSM) of 18700 ng·h/mL, a Cmax ([1]; fed (high-fat breakfast), N=13, linear mixed-effects model, read-out: Cmax, GLSM) of 2690 ng/mL and an AUC(0-inf) ([1]; fed (high-fat breakfast), N=13, read-out: AUCinf, geometric mean (Geo CV%)) of 18800 ng·h/mL. For the same compound, the AUC(0-inf) ([1]; fed (high-fat breakfast), N=13, read-out: AUCinf, mean (SD)) was 19600 ng·h/mL, the AUC(0-t) ([1]; fed (high-fat breakfast), N=13, read-out: AUClast, geometric mean (Geo CV%)) was 18600 ng·h/mL and the AUC(0-t) ([1]; fed (high-fat breakfast), N=13, read-out: AUClast, mean (SD)) was 19400 ng·h/mL. The Cmax ([1]; fed (high-fat breakfast), N=13, read-out: Cmax, geometric mean (Geo CV%)) was 2660 ng/mL, the Cmax ([1]; fed (high-fat breakfast), N=13, read-out: Cmax, mean (SD)) was 2780 ng/mL and the “delay of oral absorption with food” value [1] was “about 2 hours”. For the same compound, the time to steady-state ([2]; BID dosing) was ≤ 3 days, the AUC ([2]; 150 mg, 150 mg BID, Day 1, plasma, read-out: AUC12, geometric mean (Geo CV%)) was 3470 ng·h/mL and the AUC ([2]; 150 mg, 150 mg BID, Day 1, plasma, read-out: AUC12, mean (SD)) was 3610 ng·h/mL. For the same compound, the Cmax ([2]; 150 mg, 150 mg BID, Day 1, plasma, read-out: Cmax, geometric mean (Geo CV%)) was 597 ng/mL, the Cmax ([2]; 150 mg, 150 mg BID, Day 1, plasma, read-out: Cmax, mean (SD)) was 623 ng/mL and the Tmax ([2]; 150 mg, 150 mg BID, Day 1, plasma) was 2.5 h. For the same compound, the half-life ([2]; 150 mg, 150 mg BID, Day 1, plasma, read-out: t1/2, geometric mean (Geo CV%) (converted)) was 4.13 h, the half-life ([2]; 150 mg, 150 mg BID, Day 1, plasma, read-out: t1/2, mean (SD) (converted)) was 4.52 h and the AUC ([2]; 150 mg, 150 mg BID, Day 14, plasma, read-out: AUC12, geometric mean (Geo CV%)) was 5570 ng·h/mL. For the same compound, the AUC ([2]; 150 mg, 150 mg BID, Day 14, plasma, read-out: AUC12, mean (SD)) was 5660 ng·h/mL, the Cmax ([2]; 150 mg, 150 mg BID, Day 14, plasma, read-out: Cmax, geometric mean (Geo CV%)) was 846 ng/mL and the Cmax ([2]; 150 mg, 150 mg BID, Day 14, plasma, read-out: Cmax, mean (SD)) was 861 ng/mL. The Tmax ([2]; 150 mg, 150 mg BID, Day 14, plasma) was 2.5 h, the AUC ([2]; 300 mg, 300 mg BID, Day 1, plasma, read-out: AUC12, geometric mean (Geo CV%)) was 5540 ng·h/mL and the AUC ([2]; 300 mg, 300 mg BID, Day 1, plasma, read-out: AUC12, mean (SD)) was 5590 ng·h/mL. It also gave a Cmax ([2]; 300 mg, 300 mg BID, Day 1, plasma, read-out: Cmax, geometric mean (Geo CV%)) of 907 ng/mL, a Cmax ([2]; 300 mg, 300 mg BID, Day 1, plasma, read-out: Cmax, mean (SD)) of 925 ng/mL and a Tmax ([2]; 300 mg, 300 mg BID, Day 1, plasma) of 2.5 h. The half-life ([2]; 300 mg, 300 mg BID, Day 1, plasma, read-out: t1/2, geometric mean (Geo CV%) (converted)) was 4.15 h, the half-life ([2]; 300 mg, 300 mg BID, Day 1, plasma, read-out: t1/2, mean (SD) (converted)) was 4.19 h and the AUC ([2]; 300 mg, 300 mg BID, Day 14, plasma, read-out: AUC12, geometric mean (Geo CV%)) was 9550 ng·h/mL. It also gave an AUC ([2]; 300 mg, 300 mg BID, Day 14, plasma, read-out: AUC12, mean (SD)) of 9860 ng·h/mL, a Cmax ([2]; 300 mg, 300 mg BID, Day 14, plasma, read-out: Cmax, geometric mean (Geo CV%)) of 1420 ng/mL and a Cmax ([2]; 300 mg, 300 mg BID, Day 14, plasma, read-out: Cmax, mean (SD)) of 1470 ng/mL. For the same compound, the Tmax ([2]; 300 mg, 300 mg BID, Day 14, plasma) was 2 h, the AUC ([2]; 500 mg, 500 mg BID, Day 1, plasma, read-out: AUC12, geometric mean (Geo CV%)) was 8040 ng·h/mL and the AUC ([2]; 500 mg, 500 mg BID, Day 1, plasma, read-out: AUC12, mean (SD)) was 8340 ng·h/mL. The Cmax ([2]; 500 mg, 500 mg BID, Day 1, plasma, read-out: Cmax, geometric mean (Geo CV%)) was 1270 ng/mL, the Cmax ([2]; 500 mg, 500 mg BID, Day 1, plasma, read-out: Cmax, mean (SD)) was 1320 ng/mL and the Tmax ([2]; 500 mg, 500 mg BID, Day 1, plasma) was 2.52 h. For the same compound, the half-life ([2]; 500 mg, 500 mg BID, Day 1, plasma, read-out: t1/2, geometric mean (Geo CV%) (converted)) was 4.38 h, the half-life ([2]; 500 mg, 500 mg BID, Day 1, plasma, read-out: t1/2, mean (SD) (converted)) was 4.39 h and the AUC ([2]; 500 mg, 500 mg BID, Day 14, plasma, read-out: AUC12, geometric mean (Geo CV%)) was 12400 ng·h/mL. The AUC ([2]; 500 mg, 500 mg BID, Day 14, plasma, read-out: AUC12, mean (SD)) was 12600 ng·h/mL, the Cmax ([2]; 500 mg, 500 mg BID, Day 14, plasma, read-out: Cmax, geometric mean (Geo CV%)) was 1830 ng/mL and the Cmax ([2]; 500 mg, 500 mg BID, Day 14, plasma, read-out: Cmax, mean (SD)) was 1880 ng/mL.

— PMC12209991 (Clinical Pharmacology in Drug Development, 2025)
